The text below walks through data of patent US10246420B2, “Pyrazole derivatives” (BAYER CROPSCIENCE AKTIENGESELLSCHAFT, priority 2014, dated 2019).

For the first data set, the system named is Phakopsora pachyrhizi. Put plainly: Biological Example C2 (comparative): in vivo preventive test on Phakopsora pachyrhizi (soybeans). The settings on record: rate of application 250 ppm, evaluated 7 days after inoculation. The procedure:
(§1) To produce a suitable preparation of active compound, 1 part by weight of active compound is mixed with the stated amounts of solvent and emulsifier, and the concentrate is diluted with water to the desired concentration.
To test for preventive activity, young plants are sprayed with the preparation of active compound at the stated rate of application. After the spray coating has dried on, the plants are inoculated with an aqueous spore suspension of the causal agent of soybean rust (Phakopsora pachyrhizi) and stay for 24 h without light in an incubation cabinet at approximately 24° C. and a relative atmospheric humidity of 95%. The plants remain in the incubation cabinet at approximately 24° C. and a relative atmospheric humidity of approximately 80% and a day/night interval of 12 h.
(§2) The test is evaluated 7 days after the inoculation. 0% means an efficacy which corresponds to that of the untreated control, while an efficacy of 100% means that no disease is observed.
In turn, `C#CCOc1cc(F)cc(F)c1Nc1c(-c2ccc(F)cc2Cl)c(C)nn1C` [Example I-01] showed an Efficacy in % of 94%.

The molecule `CCCOc1cc(F)cc(F)c1Nc1c(-c2ccc(F)cc2Cl)c(C)nn1C` [drawing 20, reference compound] showed an Efficacy in % of 53%.

The next data set concerns Alternaria solani. Put plainly: Biological Example C1 (comparative): in vivo preventive test on Alternaria solani (tomatoes). To be noted: rate of application 50 ppm, evaluated 3 days after inoculation. As for the experimental part:
as §1
To test for preventive activity, young plants are sprayed with the preparation of active compound at the stated rate of application. After the spray coating has dried on, the plants are inoculated with an aqueous spore suspension of Alternaria solani. The plants are then placed in an incubation cabinet at approximately 20° C. and a relative atmospheric humidity of 100%.
The test is evaluated 3 days after the inoculation. 0% means an efficacy which corresponds to that of the untreated control while an efficacy of 100% means that no disease is observed.
As to `C#CCOc1cc(F)cc(F)c1Nc1c(-c2ccc(F)cc2Cl)c(C)nn1C` [Example I-01], the Efficacy in % turned out to be 96%.

On to `CCCOc1cc(F)cc(F)c1Nc1c(-c2ccc(F)cc2Cl)c(C)nn1C` [drawing 18, reference compound], for which the Efficacy in % is given as 40%.

System in the next data set: not listed separately
The experiment in a line: Log P by HPLC on reversed phase columns (EEC directive 79/831 Annex V.A8). Format: physicochemical.
Conditions: not given
The procedure: Measurement of Log P values was performed according to EEC directive 79/831 Annex V.A8 by HPLC (High Performance Liquid Chromatography) on reversed phase columns with the following methods:
[^a] Log P value is determined by measurement of LC-UV, in an acidic range, with 0.1% formic acid in water and acetonitrile as eluent (linear gradient from 10% acetonitrile to 95% acetonitrile).
[^b] Log P value is determined by measurement of LC-UV, in a neutral range, with 0.001 molar ammonium acetate solution in water and acetonitrile as eluent (linear gradient from 10% acetonitrile to 95% acetonitrile).
[^c] Log P value is determined by measurement of LC-UV, in an acidic range, with 0.1% phosphoric acid and acetonitrile as eluent (linear gradient from 10% acetonitrile to 95% acetonitrile).
Calibration was done with straight-chain alkan-2-ones (with 3 to 16 carbon atoms) with known Log P values (measurement of Log P values using retention times with linear interpolation between successive alkanones). Lambda-max-values were determined using UV-spectra from 200 nm to 400 nm and the peak values of the chromatographic signals.
Take `C#CCOc1cc(C)ccc1Nc1c(-c2ccc(Cl)cc2Cl)c(C)nn1C` [Example I-58]: the “LogP [a]” value was 4.30^[a].

`C#CCOc1cc(F)cc(F)c1Nc1c(-c2c(F)cc(F)cc2F)c(C)nn1C` [Example I-59]: the “LogP [a]” value is 3.10^[a].

With `C#CCOc1cc(F)cc(F)c1Nc1c(-c2c(F)cc(Cl)cc2F)c(C)nn1C` [Example I-60], the “LogP [a]” value was 3.49^[a].

Regarding `C#CCOc1cc(F)cc(F)c1Nc1c(-c2c(F)cc(OC)cc2F)c(C)nn1C` [Example I-61], the “LogP [a]” value is 3.00^[a].

For the molecule `C#CCOc1cc(F)c(Nc2c(-c3c(F)cc(OC)cc3F)c(C)nn2C)c(F)c1` [Example I-62], the “LogP [a]” value was 2.85^[a].

In the case of `C#CCOc1cc(F)c(-c2c(C)nn(C)c2Nc2c(F)cc(F)cc2OCC#C)c(F)c1` [Example I-63], the “LogP [a]” value was 2.99^[a].

Consider `C#CCOc1cccc(Cl)c1Nc1c(-c2ccc(F)cc2Cl)c(C)nn1C` [Example I-64], for which the “LogP [a]” value is 3.56^[a].

As for `C=CCOc1cccc(Cl)c1Nc1c(-c2ccc(F)cc2Cl)c(C)nn1C` [Example I-65], the “LogP [a]” value was 4.06^[a].

For the molecule `C#CCOc1cccc(Cl)c1Nc1c(-c2ccc(Cl)cc2Cl)c(C)nn1C` [Example I-66], the “LogP [a]” value was 3.99^[a].

For `C#CCOc1cccc(Cl)c1Nc1c(-c2ccc(F)cc2F)c(C)nn1C` [Example I-67], the “LogP [a]” value is 3.26^[a].

For `C=CCOc1cc(F)c(N=C=S)c(F)c1` [Z-ii-01], the “LogP [a]” value was 4.54^[a].

Consider `C#CCOc1cc(F)c(N=C=S)c(F)c1` [Z-ii-02], for which the “LogP [a]” value was 3.86^[a].

As for `C=CCOc1ccc(N=C=S)cc1` [Z-ii-05], the “LogP [a]” value came to 4.06 and the “LogP [b]” value came to 4.09.

`C=CCOc1ccc(N=C=S)cc1F` [Z-ii-06]: the “LogP [a]” value is 4.06^[a].

For `C=CCOc1ccc(F)c(N=C=S)c1` [Z-ii-07], the “LogP [a]” value was 4.30^[a].

As for `C#CCOc1ccc(F)c(N=C=S)c1` [Z-ii-08], the “LogP [a]” value is 3.62^[a].

In the case of `C#CCOc1cc(F)c(N=C=S)cc1F` [Z-ii-09], the “LogP [a]” value was 3.64^[a].

On to `C=CCOc1cc(F)c(N=C=S)cc1F` [Z-ii-10], for which the “LogP [a]” value is 4.24^[a].

As for `C#CCOc1ccc(N=C=S)cc1F` [Z-ii-11], the “LogP [a]” value is 3.47^[a].

In the case of `C#CCOc1ccc(N=C=S)c(Cl)c1` [Z-ii-12], the “LogP [a]” value came to 3.99 and the “LogP [b]” value is reported as 3.96.

Consider `C=CCOc1ccc(N=C=S)c(Cl)c1` [Z-ii-13], for which the “LogP [a]” value is 4.72^[a]; 4.72^[b] and the “LogP [b]” value was 4.72^[a]; 4.72^[b].

Consider `C#CCOc1cccc(Cl)c1N=C=S` [Z-ii-14], for which the “LogP [a]” value was 3.86^[a].

Turning to `C=CCOc1ccc(F)cc1N=C=S` [Z-ii-16], the “LogP [a]” value was 4.24^[a].

In the case of `C#CCOc1ccc(F)cc1N=C=S` [Z-ii-17], the “LogP [a]” value is 3.62^[a].

Take `C#CCOc1cc(C)ccc1N=C=S` [Z-ii-18]: the “LogP [a]” value was 3.82^[a].

For `C=CCOc1ccc(C#N)cc1N=C=S` [Z-ii-19], the “LogP [a]” value was 3.71^[a].

Regarding `C#CCOc1ccc(C#N)cc1N=C=S` [Z-ii-20], the “LogP [a]” value was 3.13^[a].

Regarding `C#CCOc1cc(F)cc(F)c1NC(=S)C(C(C)=O)c1ccc(F)cc1Cl` (stereo not shown) [Z-ix-03], the “LogP [a]” value was 3.65^[a].

The data set is the same for the next values; noted with them: LC-UV, acidic range, 0.1% formic acid in water and acetonitrile as eluent; read-out: LogP [a].
On to `C#CCOc1cc(F)cc(F)c1N=C=S` [Z-ii-03, 3,5-difluoro-2-isothiocyanatophenyl prop-2-yn-1-yl ether], for which the chromatographic logP is 3.68.

Regarding `C=CCOc1ccc(CC(C)=O)c(F)c1` [Z-iv-01, 1-[4-(allyloxy)-2-fluorophenyl]acetone], the chromatographic logP came out at 2.6.

With `COc1ccc(CC(C)=O)c(F)c1` [Z-iv-02, 1-(2-fluoro-4-methoxyphenyl)acetone], the chromatographic logP turned out to be 1.95.

Still in this data set, the particulars now being: pH 2.3; read-out: log P (pH 2.3).
`C#CCOc1cc(F)cc(F)c1N=C=S` [Z-ii-03, 3,5-difluoro-2-isothiocyanatophenyl prop-2-yn-1-yl ether]: the chromatographic logP was 3.72.

Still in this data set, the particulars now being: reversed phase HPLC columns, LC-UV, acidic range, 0.1% formic acid in water and acetonitrile as eluent; read-out: LogP [a].
Take `C#CCOc1cc(F)cc(F)c1Nc1c(-c2ccc(F)cc2Cl)c(C)nn1C` [Example I-01]: the chromatographic logP came to 3.26.

The data set is the same for the next values; noted with them: reversed phase HPLC columns, LC-UV, acidic range, 0.1% phosphoric acid and acetonitrile as eluent; read-out: LogP [c].
For `C#CCOc1cc(F)cc(F)c1Nc1c(-c2ccc(F)cc2Cl)c(C)nn1C` [Example I-01], the chromatographic logP came to 3.1.

The subject of a further data set is Sphaerotheca fuliginea. The experiment in a line: Biological Example C3 (comparative): in vivo preventive test on Sphaerotheca fuliginea (cucumbers). To be noted: rate of application 50 ppm, evaluated 7 days after inoculation. The procedure:
as §1
To test for preventive activity, young plants are sprayed with the preparation of active compound at the stated rate of application. After the spray coating has dried on, the plants are inoculated with an aqueous spore suspension of Sphaerotheca fuliginea. The plants are then placed in a greenhouse at approximately 23° C. and a relative atmospheric humidity of approximately 70%.
as §2
Take `C#CCOc1cc(F)cc(F)c1Nc1c(-c2ccc(F)cc2Cl)c(C)nn1C` [Example I-01]: the Efficacy in % was 98%.

`CCCOc1cc(F)cc(F)c1Nc1c(-c2ccc(F)cc2Cl)c(C)nn1C` [drawing 22, reference compound]: the Efficacy in % came out at 10%.
